Laboratory results reported in patent publication EP3771464A1, “PEPTIDES AS INHIBITOR OF FIBROTIC MATRIX ACCUMULATION” (Max-Planck-Gesellschaft zur Förderung der Wissenschaften …, priority 2019, dated 2021).
Entries after “also recorded” stand apart in the source; their conditions may differ. Residues, ends and D or L forms follow the SMILES beside them. No end group written: not given here.

These compounds were tested on TGFβ (assay: unstimulated TGFβ expression in murine hepatocytes (data not shown)). Conditions: not given.
Format: cell-based

| Compound | unstimulated TGFβ expression |
| --- | --- |
| CC(C)C[C@H](NC(=O)CN)C(=O)N1C[C@H](O)C[C@H]1C(=O)NCC(=O)N[C@@H](CCC(=O)O)C(N)=O [Linear CT2-NH2, Gly-Leu-Hyp-Gly-Glu-NH2] | had no effect |
| GLNGE-NH2 [Linear CT1-NH2, Gly-Leu-Asn-Gly-Glu-NH2] | had no effect |
| GLQGE-NH2 [Linear GLQGE-NH2, Gly-Leu-Gln-Gly-Glu-NH2] | efficiently inhibits unstimulated TGFβ expression in murine hepatocytes |

These compounds were tested on CCl4-treated mice (assay: CCl4 induced liver fibrosis in mice, collagen in the liver as marker of matrix accumulation). Conditions: Example 2, Figure 1, CCl4 for 6 weeks, peptides 25 mg/kg/mouse/day intraperitoneal, daily from day 32 for 10 days.
Format: in vivo
Description: Figure 1 Prevention of fibrosis progression by proline-containing cyclic and amidated linear peptides. Mice were injected for 6 weeks with CCl4 in order to induce liver fibrosis. Starting on day 32 the mice received daily intraperitoneal injections of 25 mg/kg/mouse/day of the peptides in 0.9% NaCl for a total of 10 days. CCl4-treated mice also received NaCl 0.9%. The healthy control group (CT) only received 0.9% NaCl. N= 4/ 10/ 8/ 5/ 10/ 8/ 11/ 7 in two experiments. The following peptides were tested on CCl4-treated mice: cyclic Pro-Gly-Leu-Gln-Gly-Glu (Cyclic PGLQGE), and compared to two controls: cyclic Pro-Gly-Leu-Asn-Gly-Glu (Cyclic CT1+P: cyclic PGLNGE) and cyclic Pro-Gly-Leu-Hyp-Gly-Glu (Cyclic CT2+P: cyclic PGLOGE). Linear Gly-Leu-Gln-Gly-Glu-NH2 (Linear GLQGE-NH2) was also tested and compared to two controls: linear Gly-Leu-Asn-Gly-Glu-NH2 (Linear CT1-NH2: linear GLNGE-NH2) and linear Gly-Leu-Hyp-Gly-Glu-NH2 (Linear CT2-NH2: linear GLOGE-NH2). *p<0.05. Evaluated by t-test. Data presented as mean +/- SEM. Figure 2 Prevention of fibrosis progression by cyclic peptides and acetylated linear peptides. Mice were injected for 6 weeks with CCl4 in order to induce liver fibrosis. Starting on day 32 the mice received daily intraperitoneal injections of 25 mg/kg/mouse/day of the peptides in 0.9% NaCl for a total of 10 days. CCl4-treated mice also received NaCl 0.9%. The healthy control group (CT) only received 0.9% NaCl. N= 5/ 18/ 9/ 9/ 6/ 5/ 4/ 4 in two experiments. The following peptides were tested on CCl4-treated mice: cyclic Gly-Leu-Gln-Gly-Glu (Cyclic GLQGE), and compared to two controls: cyclic Gly-Leu-Asn-Gly-Glu (Cyclic CT1: cyclic GLNGE) and cyclic Gly-Leu-Hyp-Gly-Glu (Cyclic CT2: cyclic GLOGE). Linear Ac-Gly-Leu-Gln-Gly-Glu (Linear Ac-GLQGE) was also tested and compared to two controls: linear Ac-Gly-Leu-Asn-Gly-Glu (Linear Ac-CT1: linear Ac-GLNGE) and linear Ac-Gly-Leu-Hyp-Gly-Glu (Linear Ac-CT2: linear Ac-GLOGE). *p<0.05, **p<0.005. Evaluated by t-test. Data presented as mean +/- SEM.
Mice were injected for 6 weeks with CCl4 in order to induce liver fibrosis. Starting on day 32 the mice received daily intraperitoneal injections of the peptides at a final dose of 25 mg/kg/mouse/day diluted in NaCl 0.9% for a total of 10 days. In these experiments, the following peptides were tested: cyclic peptide Pro-Gly-Leu-Gln-Gly-Glu, cyclic peptide Pro-Gly-Leu-Asn-Gly-Glu, cyclic peptide Pro-Gly-Leu-Hyp-Gly-Glu, linear peptide Gly-Leu-Gln-Gly-Glu-NH2, linear peptide Gly-Leu-Asn-Gly-Glu-NH2, linear peptide Gly-Leu-Hyp-Gly-Glu-NH2.
Mice were injected for 6 weeks with CCl4 in order to induce liver fibrosis. Starting on day 32 the mice received daily intraperitoneal injections of the peptides at a final dose of 25 mg/kg/mouse/day diluted in NaCl 0.9% for a total of 10 days. In these experiments, the following peptides were tested: cyclic peptide Gly-Leu-Gln-Gly-Glu, cyclic peptide Gly-Leu-Asn-Gly-Glu, cyclic peptide Gly-Leu-Hyp-Gly-Glu, linear peptide Ac-Gly-Leu-Gln-Gly-Glu, linear peptide Ac-Gly-Leu-Asn-Gly-Glu, linear peptide Ac-Gly-Leu-Hyp-Gly-Glu.

| Compound | collagen accumulation |
| --- | --- |
| CC(C)C[C@@H]1NC(=O)CNC(=O)[C@@H]2CCCN2C(=O)[C@H](CCC(=O)O)NC(=O)CNC(=O)[C@H](CC(N)=O)NC1=O [Cyclic CT1+P, Pro-Gly-Leu-Asn-Gly-Glu] (HELM PEPTIDE1{E.P.G.L.N.G}$PEPTIDE1,PEPTIDE1,1:R1-6:R2$$$V2.0) | neither the cyclic forms of the control peptides (with Pro: Pro-Gly-Leu-Asn-Gly-Glu or Pro-Gly-Leu-Hyp-Gly-Glu) nor the linear forms of the control peptides Gly-Leu-Asn-Gly-Glu-NH2 and Gly-Leu-Hyp-Gly-Glu-NH2 were able to reduce collagen amount in the liver |
| CC(C)C[C@@H]1NC(=O)CNC(=O)[C@@H]2CCCN2C(=O)[C@H](CCC(=O)O)NC(=O)CNC(=O)[C@@H]2C[C@@H](O)CN2C1=O [Cyclic CT2+P, Pro-Gly-Leu-Hyp-Gly-Glu] (HELM PEPTIDE1{E.P.G.L.[Hyp].G}$PEPTIDE1,PEPTIDE1,1:R1-6:R2$$$V2.0) | neither the cyclic forms of the control peptides (with Pro: Pro-Gly-Leu-Asn-Gly-Glu or Pro-Gly-Leu-Hyp-Gly-Glu) nor the linear forms of the control peptides Gly-Leu-Asn-Gly-Glu-NH2 and Gly-Leu-Hyp-Gly-Glu-NH2 were able to reduce collagen amount in the liver |
| CC(C)C[C@@H]1NC(=O)CNC(=O)[C@@H]2CCCN2C(=O)[C@H](CCC(=O)O)NC(=O)CNC(=O)[C@H](CCC(N)=O)NC1=O [Cyclic PGLQGE, Pro-Gly-Leu-Gln-Gly-Glu] (HELM PEPTIDE1{E.P.G.L.Q.G}$PEPTIDE1,PEPTIDE1,1:R1-6:R2$$$V2.0) | able to significantly reduce collagen accumulation |
| GLQGE-NH2 [Linear GLQGE-NH2, Gly-Leu-Gln-Gly-Glu-NH2] | able to significantly reduce CCl4-induced collagen accumulation |

Same assay, conditions: Example 3, Figure 2, CCl4 for 6 weeks, peptides 25 mg/kg/mouse/day intraperitoneal, daily from day 32 for 10 days

| Compound | collagen accumulation |
| --- | --- |
| CC(C)C[C@@H]1NC(=O)CNC(=O)[C@H](CCC(=O)O)NC(=O)CNC(=O)[C@H](CC(N)=O)NC1=O [Cyclic CT1, Gly-Leu-Asn-Gly-Glu] (HELM PEPTIDE1{E.G.L.N.G}$PEPTIDE1,PEPTIDE1,1:R1-5:R2$$$V2.0) | failed to inhibit collagen accumulation |
| CC(C)C[C@@H]1NC(=O)CNC(=O)[C@H](CCC(=O)O)NC(=O)CNC(=O)[C@@H]2C[C@@H](O)CN2C1=O [Cyclic CT2, Gly-Leu-Hyp-Gly-Glu] (HELM PEPTIDE1{E.G.L.[Hyp].G}$PEPTIDE1,PEPTIDE1,1:R1-5:R2$$$V2.0) | failed to inhibit collagen accumulation |
| CC(C)C[C@@H]1NC(=O)CNC(=O)[C@H](CCC(=O)O)NC(=O)CNC(=O)[C@H](CCC(N)=O)NC1=O [Cyclic GLQGE, Gly-Leu-Gln-Gly-Glu] (HELM PEPTIDE1{E.G.L.Q.G}$PEPTIDE1,PEPTIDE1,1:R1-5:R2$$$V2.0) | larger inhibitory effect compared to the linear Gly-Leu-Gln-Gly-Glu-NH2 or Ac-Gly-Leu-Gln-Gly-Glu |
| CC(=O)NCC(=O)N[C@@H](CC(C)C)C(=O)N1C[C@H](O)C[C@H]1C(=O)NCC(=O)N[C@@H](CCC(=O)O)C(=O)O [Linear Ac-CT2, Ac-Gly-Leu-Hyp-Gly-Glu] | neither the cyclic forms nor the linear forms of the peptides Ac-Gly-Leu-Asn-Gly-Glu and Ac-Gly-Leu-Hyp-Gly-Glu were able to reduce collagen amount in the liver |
| Ac-GLNGE [Linear Ac-CT1, Ac-Gly-Leu-Asn-Gly-Glu] | neither the cyclic forms nor the linear forms of the peptides Ac-Gly-Leu-Asn-Gly-Glu and Ac-Gly-Leu-Hyp-Gly-Glu were able to reduce collagen amount in the liver |
| Ac-GLQGE [Linear Ac-GLQGE, Ac-Gly-Leu-Gln-Gly-Glu] | able to significantly reduce CCl4-induced collagen accumulation |

Same assay, conditions: Example 3, Figure 2, CCl4 for 6 weeks, peptides 25 mg/kg/mouse/day intraperitoneal, daily from day 32 for 10 days, listed as cyclic peptide Gly-Leu-Gln-Gly-Glu

| Compound | collagen accumulation |
| --- | --- |
| CC(C)C[C@@H]1NC(=O)CNC(=O)[C@H](CCC(=O)O)NC(=O)CNC(=O)[C@H](CCC(N)=O)NC1=O [Cyclic GLQGE, Gly-Leu-Gln-Gly-Glu] (HELM PEPTIDE1{E.G.L.Q.G}$PEPTIDE1,PEPTIDE1,1:R1-5:R2$$$V2.0) | able to significantly reduce collagen accumulation; also recorded: more efficient in reducing collagen accumulation also in comparison to the cyclic peptide with proline Pro-Gly-Leu-Gln-Gly-Glu |
